Reference: ChEMBL document CHEMBL1157889, “Peripheral site acetylcholinesterase inhibitors targeting both inflammation and cholinergic dysfunction” (Bioorg Med Chem Lett, 2010)

How the values were obtained:
[1] = Chemical stability assessed as hydrolysis half life in presence of 80% human plasma; assay type: ADME, cell-free
Acetylcholinesterase = Acetylcholinesterase (Electrophorus electricus, UniProt O42275); experiment: Inhibition of electric eel AChE by Ellman's method
Chain of Acetylcholinesterase (O42275 whole entry): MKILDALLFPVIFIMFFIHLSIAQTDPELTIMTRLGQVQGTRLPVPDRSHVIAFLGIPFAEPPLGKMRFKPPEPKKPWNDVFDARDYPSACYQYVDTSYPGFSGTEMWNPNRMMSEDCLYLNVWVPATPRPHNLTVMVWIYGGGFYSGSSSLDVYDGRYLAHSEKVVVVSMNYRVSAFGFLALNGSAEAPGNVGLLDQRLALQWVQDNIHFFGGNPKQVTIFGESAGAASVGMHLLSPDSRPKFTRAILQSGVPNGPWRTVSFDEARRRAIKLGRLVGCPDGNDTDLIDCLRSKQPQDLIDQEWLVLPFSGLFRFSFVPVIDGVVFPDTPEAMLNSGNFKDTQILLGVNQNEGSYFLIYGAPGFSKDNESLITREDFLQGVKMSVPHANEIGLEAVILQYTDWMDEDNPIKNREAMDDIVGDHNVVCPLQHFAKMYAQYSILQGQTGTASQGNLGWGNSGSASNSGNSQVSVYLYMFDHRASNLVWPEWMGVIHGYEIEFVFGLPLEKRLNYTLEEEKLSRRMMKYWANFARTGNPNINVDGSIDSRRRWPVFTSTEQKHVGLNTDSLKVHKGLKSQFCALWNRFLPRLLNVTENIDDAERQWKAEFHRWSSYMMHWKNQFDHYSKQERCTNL

| SMILES | t1/2 [1] | IC50 (Acetylcholinesterase) |
| --- | --- | --- |
| COc1ccc2cc([C@H](C)C(=O)OCc3ccc(OC(=O)OCCC(C)(C)C)cc3)ccc2c1 | 2.25 h | – |
| COc1ccc2cc([C@H](C)C(=O)OCC[Si](C)(C)C)ccc2c1 | 1.05 h | – |
| COc1ccc2c(c1)c(CC(=O)OCc1ccc(OC(=O)OCCC(C)(C)C)cc1)c(C)n2C(=O)c1ccc(Cl)cc1 | 7.8 h | – |
| COc1ccc2cc([C@H](C)C(=O)OCCC(C)(C)C)ccc2c1 | 0.633 h | – |
| CC(C)(C)CCOC(=O)Oc1ccc(COC(=O)Cc2ccccc2Nc2c(Cl)cccc2Cl)cc1 | 5.95 h | 510 nM |
| CC(C)(C)CCOC(=O)Cc1ccccc1Nc1c(Cl)cccc1Cl | 1.85 h | – |
| COc1ccc2cc([C@H](C)C(=O)OCc3ccc(OC(=O)OCC[Si](C)(C)C)cc3)ccc2c1 | 4.22 h | – |
| CC(C)Cc1ccc(C(C)C(=O)OCc2ccc(OC(=O)OCCC(C)(C)C)cc2)cc1 (centres undefined) | 3.4 h | – |
